The target of assay [1] is Calcitonin gene-related peptide (CGRP) receptor binding sites. As to the kind of experiment: ChEBML_42602.
Assay [2] concerns the target Calcitonin gene-related peptide type 1 receptor (Cavia porcellus). As to the kind of experiment: Binding affinity against [125I]-hCalcitonin gene-related peptide type receptor binding sites in guinea pig atrium membrane.

Where “and” joins values, the source holds several entries; their conditions need not be identical. Equal values may be shown once.

A word on the IC50: it is the concentration needed to halve the response being measured.

`CC(C)C[C@H](NC(=O)CNC(=O)[C@H](C)NC(=O)[C@H](CC(C)C)NC(=O)[C@H](CCCN=C(N)N)NC(=O)[C@@H](N)Cc1c[nH]cn1)C(=O)N[C@@H](CC(C)C)C(=O)N[C@@H](CO)C(=O)N[C@@H](CCCN=C(N)N)C(=O)N[C@@H](CO)C(=O)NCC(=O)NCC(=O)N[C@H](C(=O)N[C@H](C(=O)N[C@@H](CCCCN)C(=O)N[C@@H](CC(N)=O)C(=O)N[C@@H](CC(N)=O)C(=O)N[C@@H](Cc1ccccc1)C(=O)N[C@H](C(=O)N1CCC[C@H]1C(=O)N[C@H](C(=O)N[C@@H](CC(N)=O)C(=O)N[C@H](C(=O)NCC(=O)N[C@@H](CO)C(=O)N[C@@H](CCCCN)C(=O)N[C@@H](C)C(=O)N[C@@H](Cc1ccccc1)C(N)=O)C(C)C)[C@@H](C)O)C(C)C)C(C)C)C(C)C`: the IC50 in assay [1] was determined as 9 nM. For the compound H-VTHALAGLLSRSGGVVKNNFVPTNVGSKAF-NH2, in assay [2], the IC50 is 22 nM and 25 nM.

As for H-VTHRAAGLLSRSGGVVKNNFVPTNVGSKAF-NH2, the results for the IC50 in assay [1] and in assay [2] were 14.5 nM and 11 nM, respectively.
